Data reported in ChEMBL document CHEMBL3352727, “Synthesis, biological evaluation and docking analysis of 3-methyl-1-phenylchromeno[4,3-c]pyrazol-4(1H)-ones as potential cyclooxygenase-2 (COX-2) inhibitors” (Bioorg Med Chem Lett, 2014).

What was measured:
[1] = target: T1, Prostaglandin G/H synthase 1 (Ovis aries) (UniProt P05979); assay: Inhibition of ovine COX1 assessed as reduction in PGF2alpha formation at 10 uM incubated for 18 hrs by enzyme immunoassay
T1 sequence (whole entry): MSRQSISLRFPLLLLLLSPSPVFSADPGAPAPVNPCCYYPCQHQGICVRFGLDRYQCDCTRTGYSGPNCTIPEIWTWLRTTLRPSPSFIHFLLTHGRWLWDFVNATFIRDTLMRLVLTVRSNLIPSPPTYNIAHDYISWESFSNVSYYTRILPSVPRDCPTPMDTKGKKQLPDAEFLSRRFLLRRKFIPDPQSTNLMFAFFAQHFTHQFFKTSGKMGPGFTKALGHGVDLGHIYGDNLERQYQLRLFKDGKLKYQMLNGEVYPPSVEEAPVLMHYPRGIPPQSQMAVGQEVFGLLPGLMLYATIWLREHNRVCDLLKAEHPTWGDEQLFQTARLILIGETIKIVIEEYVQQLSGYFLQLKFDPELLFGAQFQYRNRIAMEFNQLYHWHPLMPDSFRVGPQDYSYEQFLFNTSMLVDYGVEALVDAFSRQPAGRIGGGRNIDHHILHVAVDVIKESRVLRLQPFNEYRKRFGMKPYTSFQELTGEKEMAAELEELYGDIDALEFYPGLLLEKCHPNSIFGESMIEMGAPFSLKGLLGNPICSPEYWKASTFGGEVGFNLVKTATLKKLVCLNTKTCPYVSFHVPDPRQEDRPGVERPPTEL

[2] = target: T2, Prostaglandin G/H synthase 1 (Ovis aries, UniProt P05979); assay: Inhibition of ovine COX1 assessed as reduction in PGF2alpha formation incubated for 18 hrs by enzyme immunoassay
T2 sequence (P05979 whole entry): T1 sequence (whole entry)

Rattus norvegicus [3] = assay: Anti-inflammatory activity in Sprague-Dawley rat model of carrageenan-induced paw edema assessed as inhibition of paw edema volume at 150 umol/kg, po dosed 1 hr before carrageenan challenge and measured 1 hr post carrageenan challenge; assay type: functional
Rattus norvegicus [4] = assay: Anti-inflammatory activity in Sprague-Dawley rat model of carrageenan-induced paw edema assessed as inhibition of paw edema volume at 150 umol/kg, po dosed 1 hr before carrageenan challenge and measured 3 hrs post carrageenan challenge; assay type: functional
Rattus norvegicus [5] = assay: Anti-inflammatory activity in Sprague-Dawley rat model of carrageenan-induced paw edema assessed as inhibition of paw edema volume at 150 umol/kg, po dosed 1 hr before carrageenan challenge and measured 5 hrs post carrageenan challenge; assay type: functional

Structure (SMILES) | inhibition [1] [%] | IC50 [2] [µM] | inhibition in vivo at 150 µmol/kg (Rattus norvegicus [3]) [%] | inhibition in vivo at 150 µmol/kg (Rattus norvegicus [4]) [%] | inhibition in vivo at 150 µmol/kg (Rattus norvegicus [5]) [%]
Cc1nn(-c2ccc(C(F)(F)F)cc2)c2c1c(=O)oc1ccccc12 | 34.3 | > 30 | 27.6 | 40.4 | 59.9
Cc1ccc(C)c(-n2nc(C)c3c(=O)oc4ccc(Cl)cc4c32)c1 | 39.2 | – | – | – | –
Cc1nn(-c2ccccc2)c2c1c(=O)oc1ccc(Cl)cc12 | 43.8 | – | – | – | –
Cc1nn(-c2ccc(Cl)cc2)c2c1c(=O)oc1ccccc12 | 43.7 | > 30 | 21.3 | 35.2 | 49.4
Cc1ccc(-c2cc(C(F)(F)F)nn2-c2ccc(S(N)(=O)=O)cc2)cc1 [CELECOXIB] | – | – | 24.4 | 38.8 | 51.4
Cc1ccc(C)c(-n2nc(C)c3c(=O)oc4ccccc4c32)c1 | 21.3 | – | – | – | –
Cc1nn(-c2ccc(Cl)cc2Cl)c2c1c(=O)oc1ccccc12 | 30.5 | – | – | – | –
Cc1nn(-c2ccccc2)c2c1c(=O)oc1ccccc12 | 48.1 | > 30 | 19.3 | 30.1 | 38.2
Cc1nn(-c2ccc(C(F)(F)F)cc2)c2c1c(=O)oc1ccc(Cl)cc12 | 33.2 | > 30 | 23.3 | 36.1 | 57.8
Cc1nn(-c2ccccc2)c2c1c(=O)oc1ccc(Br)cc12 | 54.2 | – | – | – | –
Cc1nn(-c2ccc(F)cc2)c2c1c(=O)oc1ccccc12 | 28.3 | > 30 | 24.6 | 39.8 | 55.6
Cc1nn(-c2ccccc2C(F)(F)F)c2c1c(=O)oc1ccccc12 | 34.6 | – | – | – | –

Now from value to compound, other results behind:

inhibition [1] [%] | IC50 [2] [µM] | Structure (SMILES) | inhibition in vivo at 150 µmol/kg (Rattus norvegicus [3]) [%] | inhibition in vivo at 150 µmol/kg (Rattus norvegicus [4]) [%] | inhibition in vivo at 150 µmol/kg (Rattus norvegicus [5]) [%]
34.8 | – | COc1ccc2c(c1)oc(=O)c1c(C)nn(-c3ccc(Cl)cc3)c12 | – | – | –
27.3 | – | COc1ccc2c(c1)oc(=O)c1c(C)nn(-c3ccc(Br)cc3)c12 | – | – | –
39.5 | – | COc1ccc2c(c1)oc(=O)c1c(C)nn(-c3cc(C)ccc3C)c12 | – | – | –
38.2 | – | COc1ccc2c(c1)oc(=O)c1c(C)nn(-c3ccccc3C(F)(F)F)c12 | – | – | –
34.8 | – | COc1ccc2c(c1)oc(=O)c1c(C)nn(-c3ccc(F)cc3)c12 | – | – | –
47.5 | > 30 | Cc1nn(-c2ccc(Br)cc2)c2c1c(=O)oc1ccccc12 | 14.2 | 27.8 | 37
43.2 | – | COc1ccc2c(c1)oc(=O)c1c(C)nn(-c3ccccc3)c12 | – | – | –
33.2 | > 30 | COc1ccc2c(c1)oc(=O)c1c(C)nn(-c3ccc(C(F)(F)F)cc3)c12 | 21.7 | 32.2 | 43.7
